Patent US20100323989A1, “PHARMACEUTICAL COMBINATIONS USEFUL FOR TREATING HCV” (Gilead Sciences, Inc., priority 2009, published 2010)

What was measured:
[1] = test system: HCV genotype 1b replicon cells (Huh-luc); experiment: Combination study in Huh-luc replicon cells analysed with MacSynergy II; assay type: cell-based; settings: Compound 1 in combination with Compound 2, MacSynergy II
Experimental: HCV genotype 1b replicon cells (Huh-luc) were obtained from Reblikon (Mainz, Germany). The replicon in these cells is designated I389luc-ubi-neo/NS3-3′/ET and encodes a selectable resistance marker (neomycin phosphotransferase) as well as the firefly luciferase reporter gene. Huh-luc cells were maintained in Dulbecco's Modified Eagle's Medium (DMEM; GIBCO, Carlsbad, Calif.) supplemented with 10% fetal bovine serum (FBS; Hyclone, Logan, Utah) and 0.5 mg/mL of G-418 (GIBCO). Cells were passaged twice a week and maintained at subconfluent levels.
For each individual drug, the EC50 value was selected as the midpoint for the concentration range tested. Cells were incubated for three days and analyzed for luciferase expression as indicated above. For the combination study, two independent experiments were performed in triplicate.
The calculated volumes of surface deviations are expressed in nM2%. Per Prichard and Shipman, combination effects are defined as:
Highly synergistic if volumes >100 nM^2.
Slightly synergistic if volumes are >50 and ≦100 nM^2.
Additive if volumes are >−50 nM^2 and ≦50 nM^2.
Slightly antagonistic if volumes are >−100 nM^2 and ≦−50 nM^2.
Antagonistic if volumes are ≦−100 nM^2.

[2] = test system: mutant 1b Con-1 PI-Luc replicons (major HCV NS5B polymerase inhibitor resistance mutations); experiment: Transient transfection replicon assay, panel of NS5B polymerase inhibitor resistance mutations; assay type: cell-based, HCV genotype 1b; settings: against all NS5B mutations tested
[3] = test system: 1b PI-luc replicon with NS3 protease mutation D168E; assay type: cell-based, HCV genotype 1b; settings: ratio of mutant EC50 to wild type EC50, NS3 D168E
[4] = Multiple-dose pharmacokinetic interaction study in healthy subjects (Example 5); assay type: in vivo, human
Experimental: Serial blood samples for analysis of plasma concentrations of Compound 2 were collected up to 120 hours after the morning dose on Days 7 and 21 to determine systemic drug exposure. Glossary of Abbreviations and Definitions of Terms Used in Example 5 • AUCtau The area under the concentration versus time curve over the dosing interval • AUC0-last Area under the concentration versus time curve from time zero to the last quantifiable concentration • AUCinf Area under the concentration versus time curve extrapolated to infinite time, calculated as AUC0-last+(Clast/λz) • BID twice daily • CI confidence interval • Cmax The maximum observed concentration of drug in plasma • Ctau The observed drug concentration at the end of the dosing interval • CV coefficient of variation

[5] = test system: panel of protease inhibitor resistance-associated-mutations (NS3) in 1b PI-luc replicon; settings: all NS3 protease mutants tested
[6] = Compound 1 (40 mg BID) + Compound 2 (75 mg BID) / Compound 2 alone
[7] = coadministration of Compound 1 (40 mg BID) with Compound 2 (75 mg BID) vs Compound 2 alone

Row | Compound | Interaction [1] | fold change in EC50 values from wild-type [2] | Fold Resistance D168E [3] | Compound 2 AUCtau, % Geometric Least Square Mean Ratio (90% CI) [4, 6] | Compound 2 Cmax, % Geometric Least Square Mean Ratio (90% CI) [4, 6] | Compound 2 Ctau, % Geometric Least Square Mean Ratio (90% CI) [4, 6] | decrease in AUCtau of Compound 2 [4, 7] | decrease in Cmax of Compound 2 [4, 7] | decrease in Ctau of Compound 2 [4, 7] | AUC ([4]; plasma, human, oral, Compound 2 (75 mg BID) alone, Day 7, read-out: Compound 2 AUCtau, Mean (% CV)) | Antagonism Volume ([1]; mean ± SD) | Synergy Volume ([1]; mean ± SD) | fold change in EC50 values from wild-type [5]
1 | COc1ccc2c(O[C@@H]3C[C@H]4C(=O)N[C@]5(P(=O)(O)Cc6c(F)cccc6F)C[C@H]5CCCCCCC[C@H](NC(=O)OC5CCCC5)C(=O)N4C3)cc(-c3csc(NC(C)C)n3)nc2c1Cl [Compound 2] | additive | ≤ 2.1 fold | 120.0 fold | 75.9 (62.0, 93.0) % | 80.0 (66.7, 95.6) % | 70.0 (55.9, 87.5) % | 24% | 20% | 30% | 35300 ng·h/mL | – | – | –
2 | Fc1ccccc1-c1nc2ccn(Cc3ccc(-c4ccc(C(F)(F)F)cc4C(F)(F)F)nn3)cc-2n1 [Compound 1, 5-({6-[2,4-bis(trifluoromethyl)phenyl]pyridazin-3-yl}methyl)-2-(2-fluorophenyl)-5H-imidazo[4,5-c]pyridine] | Additive (Additive if volumes are >−50 nM^2 and ≦50 nM^2.) | – | 1.0 fold | – | – | – | – | – | – | – | 0.07 ± 0.07 nM^2 | 13.5 ± 10.5 nM^2 | ≤ 1.2 fold
